{"source": "patent US7294627B2", "about": "“Chemical compounds” (Eli Lilly and Company, priority 2001, dated 2007)", "biological_target": "T1, human factor Xa (Homo sapiens, UniProt P00742)", "T1 construct": "25 μL human factor Xa (32 nM in 0.03 M tris, 0.15 M NaCl, 1 mg/mL HSA); purchased Enzyme Research Laboratories (South Bend, Ind., USA)", "T1 sequence (P00742 235-488 limits assumed)": "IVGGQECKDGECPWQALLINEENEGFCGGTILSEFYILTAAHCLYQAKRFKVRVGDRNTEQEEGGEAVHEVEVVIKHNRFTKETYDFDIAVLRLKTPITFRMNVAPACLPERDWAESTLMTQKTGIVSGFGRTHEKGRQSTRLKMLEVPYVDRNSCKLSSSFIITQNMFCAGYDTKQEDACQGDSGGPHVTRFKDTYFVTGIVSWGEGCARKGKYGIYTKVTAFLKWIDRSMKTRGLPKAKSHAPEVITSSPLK", "T1 sequence (P00742 41-179 partner limits assumed)": "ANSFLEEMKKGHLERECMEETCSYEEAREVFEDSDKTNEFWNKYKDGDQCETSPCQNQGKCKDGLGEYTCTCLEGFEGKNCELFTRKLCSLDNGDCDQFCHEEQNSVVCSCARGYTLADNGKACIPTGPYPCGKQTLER", "test": "Enzyme inhibition assay (apparent Kass, chromogenic substrate hydrolysis)", "format": "biochemical", "settings": "apparent association constant, human factor Xa 3.2 nM, BzIleGluGlyArgpNA substrate; 1/appKass=app Ki", "experimental": "Human factor Xa and human thrombin are purchased from Enzyme Research Laboratories (South Bend, Ind., USA). Other proteases are from other commercial sources. Chromogenic para-nitroanilide peptide protease substrates are purchased from Midwest Biotech (Fishers, Ind., USA).\nThe binding affinities for human factor Xa are measured as apparent association constants (Kass) derived from protease inhibition kinetics as described previously.^a,b,c,d The apparent Kass values are obtained using automated (BioMek-1000) dilutions of inhibitors (Kass determinations are performed in triplicate at each of four-eight inhibitor concentrations) into 96-well plates and chromogenic substrate hydrolysis rates determined at 405 nm using a Thermomax plate reader from Molecular Devices (San Francisco). […] [Free Xa] and [bound Xa] are determined from linear standard curves on the same plate by use of SoftmaxPro software for each inhibitor concentration and apparent Kass calculated for each inhibitor concentration which produced hydrolysis inhibition between 20% and 80% of the control (3.2 nM factor Xa): apparent Kass=[E:I]/[Ef][If]=[Eb]/[Ef][I^o−I^b]. […] The variability of mean apparent Kass values determined at the single substrate concentration is +/−15%. […]", "data": [{"smiles": "COc1ccc(C(=O)NC(C(=O)N2CCC(CN(C)c3ccncc3)CC2)c2ccccc2Cl)cc1.Cl", "note": "(racemic) [Example 7]", "values": [{"measurement": "Kass", "value": "~1.22e+08", "unit": "L/mol"}]}]}
